# Assays:
# [1] = test system: prostate cancer line (LN CaP); assay: Apoptotic effect, TUNEL test; type: cell-based; conditions: LN CaP cells incubated at the IC50 concentration, 8 to 96 hours; early = 8 hours
# Method: Study of the pro-apoptotic effects of compounds of the invention is carried out on a prostate cancer line (LN CaP). The cells were incubated for periods ranging from 8 to 96 hours at the IC50 concentration.
# The TUNEL test was then carried out according to the method described by Sgonc in Trends Genetics—1994; 10:41.
# [2] = test system: Eleven cell lines from cancers of different origins and sites (lung, breast, prostate, colon, blood, bladder, skin, ovary, brain); assay: In vitro cytotoxicity, MTT test, 96 hours incubation; type: cell-based; conditions: lines to which the stated IC50 range applies
# Method: Eleven cell lines from cancers of different origins and sites (lung, breast, prostate, colon, blood, bladder, skin, ovary, brain) are cultured in order to study the various compounds in comparison to the reference substance.
# The cells are incubated for 96 hours with various concentrations of compounds of the invention.
# The in vitro cytotoxic activity is determined by the MTT [3-(4,5-dimethylthiazol-2-yl)-2,5-diphenyltetrazolium bromide] test as described by Carmichael in Cancer Res.—1987; 47 (4): 936-942.
# The activity is expressed in terms of the IC50, that is to say the concentration which inhibits proliferation of the tumour cells by 50%.
# lung cancer cells = assay: In vitro synergistic effect with anti-cancer agent (MTT test, Chou and Talabay analysis), lung cancer cells; type: cell-based; conditions: 96 hours, five concentrations of compound and of cisplatin (CDDP)
# Method: (§1) Three cell lines which are sensitive to three anti-cancer agents are used: breast cancer cells in association with treatment with tamoxifen (TXL), lung cancer cells in association with treatment with cisplatin (CDDP), and colon cancer cells in association with treatment with SN38, a metabolite of CPT-11 (irinotecan).
# (§2) The tumour cells are incubated for 96 hours together with five different concentrations of each of the compounds of the invention and five concentrations of each of the anti-cancer agents in association.
# (§3) The in vitro cytotoxic activity is determined by the MTT test described in Example 24. Analysis of the data is carried out according to the method of Chou and Talabay, published in Trends Pharmaceutical Sci.—1983; 4:450.
# breast cancer cells = assay: In vitro synergistic effect with anti-cancer agent (MTT test, Chou and Talabay analysis), breast cancer cells; type: cell-based; conditions: 96 hours, five concentrations of compound and of anti-cancer agent; method names tamoxifen (TXL) on breast cancer cells
# Method: as §1, §2, §3
smiles,measurement,setting,value
"O=c1cc(-c2cn(-c3ccccc3)c3ccccc3c2=O)oc2cc(O)ccc12 [Example 2, 3-(7-Hydroxy-4-oxo-4H-1-benzopyran-2-yl)-1-phenyl-1H-quinolin-4-one]",melting point,,295 to 300 °C
"O=c1c(-c2cc(=O)c3c(O)cccc3o2)cn(-c2ccccc2)c2ccccc12 [Example 6, 3-(5-Hydroxy-4-oxo-4H-1-benzopyran-2-yl)-1-phenyl-1H-quinolin-4-one]",apoptosis (TUNEL test),[1],very high apoptosis
same,melting point,,> 300 °C
"COc1cc(O)c2c(=O)cc(-c3cn(-c4ccccc4)c4ccccc4c3=O)oc2c1 [Example 7, 3-(5-Hydroxy-7-methoxy-4-oxo-4H-1-benzopyran-2-yl)-1-phenyl-1H-quinolin-4-one]",melting point,,295 to 296 °C
"O=c1cc(-c2cn(-c3ccccc3)c3ccccc3c2=O)oc2ccccc12 [Example 8, 3-(4-Oxo-4H-1-benzopyran-2-yl)-1-phenyl-1H-quinolin-4-one]",melting point,,327 to 328 °C
"COc1cc(OC)c2c(=O)cc(-c3cn(-c4ccccc4)c4ccccc4c3=O)oc2c1C1=CCN(C)CC1 [Example 9, 3-[5,7-Dimethoxy-8-(1-methyl-1,2,5,6-tetrahydropyridin-4-yl)-4-oxo-4H-1-benzopyran-2-yl]-1-phenyl-1H-1,4-dihydroquinolin-4-one]",number of the 11 lines tested with respect to which the compound has cytotoxic activity,[2],8 of the 11
"CN1CC=C(c2c(O)cc(O)c3c(=O)cc(-c4cn(-c5ccccc5)c5ccccc5c4=O)oc23)CC1 [Example 14, 3-[5,7-Dihydroxy-8-(1-methyl-1,2,5,6-tetrahydropyridin-4-yl)4-oxo-4H-1-benzopyran-2-yl]-1-phenyl-1H-1,4-dihydroquinolin-4-one]",synergistic effect with cisplatin,lung cancer cells,synergistic effect
same,number of the 11 lines tested with respect to which the compound has cytotoxic activity,[2],5 of the 11
same,synergistic effect with paclitaxel,breast cancer cells,synergistic effect
"O=c1c(-c2cc(=O)c3c(O)cc(O)c(C4=CCN(Cc5ccccc5)CC4)c3o2)cn(-c2ccccc2)c2ccccc12 [Example 16, 3-[5,7-Dihydroxy-8-(1-benzyl-1,2,5,6-tetrahydropyridin-4-yl)-4-oxo-4H-1-benzopyran-2-yl]-1-phenyl-1H-1,4-dihydroquinolin-4-one]",synergistic effect with cisplatin,lung cancer cells,synergistic effect
same,synergistic effect with paclitaxel,breast cancer cells,synergistic effect

# From patent US7339061B2, “3-(4-oxo-4H-chromen-2-yl)-(1H)-quinolin-4-one derivatives, method for preparing same and pharmaceutical compositions containing same” (Les Laboratoires Servier, priority 2002, dated 2008)
